test system: Dd2 strain of P. falciparum; experiment: Activity against the Dd2 strain of P. falciparum (SYBR Green I, 72-h incubation); assay type: cell-based; conditions: Plasmodium falciparum, DD2, 72 h, read-out: EC^50 Dd2
Description: The Dd2 strain of P. falciparum was cultured in complete medium (RPMI with L-glutamine, 4.3% heat-inactivated O-positive human serum, 2.08 mg/ml albumax, 0.013 mg/ml hypoxanthine, 1.17 mg/ml glucose, 0.18% NaHCO3, 0.031 M Hepes, 2.60 mM NaOH, and 0.043 mg/ml gentamicin) until the parasitemia reached 3-8%. Parasitemia was determined by checking at least 500 red blood cells from a Giemsa-stained blood smear. The Dd2 cultures along with tested O-positive red blood cells are centrifuged at room temperature at 2,000 rpm for 5 min using an Eppendorf centrifuge 581 OR with an A-4-81 rotor. The medium was aspirated off. For the compound screening, a parasite dilution at a 1% parasitemia and 1.0% hematocrit was created with screening medium (RPMI with L-glutamine, 4.16 mg/ml albumax II, 0.013 mg/ml hypoxanthine, 1.73 mg/ml glucose, 0.18% NaHCO3, 0.031M Hepes, 2.60 mM NaOH, and 0.043 mg/ml gentamicin). The suspension was gassed with 93% nitrogen, 4% carbon dioxide, and 3% oxygen and placed at 37° C. until needed. Using a liquid dispenser, 20 μl of screening medium was dispensed into 384-well, black, clear-bottom plates. With a PinTool, 100 nl of compounds dissolved in DMSO was transferred into the assay plates along with control compound (mefloquine). Next, 30 μl of the parasite suspension in screening medium was then dispensed into the assay plates such that the final parasitemia was 1%, and the final hematocrit was 1.0%. Final concentration of DMSO was 0.125%. Mefloquine at a final concentration of 20 μM and DMSO at a final concentration of 0.125% were used within the assay plates to serve as background and baseline controls, respectively. The assay plates were transferred to incubators (93% nitrogen, 4% carbon dioxide, and 3% oxygen during the 72-h incubation at 37° C.). Ten microliters of detection reagent consisting of 1 OX SYBR Green I (Invitrogen; supplied in 10,000× concentration) in lysis buffer (20 mM Tris-HCl, 5 mM EDTA, 0.16% Saponin wt/vol, 1.6% Triton X vol/vol) was dispensed into the assay plates. For optimal staining, the assay plates were left at room temperature for 24 h in the dark. The assay plates were read by using an Envision (PerkinElmer) reader, with 505 dichroic mirrors with 485-nm excitation and 530-nm emission settings, and the plate reads were from the bottom.

Molecule | EC50 [nM]
COc1ccc2c3c([nH]c2c1)[C@H](CO[Si](C)(C)C(C)(C)C)N(C(C)=O)CC31CCN(Cc2ccccc2F)CC1 [Compound 38, (R)-1-(1′-(((tert-butyldimethylsilyl)oxy)methyl)-1-(2-fluorobenzyl)-7′-methoxyspiro[piperidine-4,4′-pyrido[3,4-b]indol]-2′(1′H,3′H,9′H)-yl)ethanone] | 809
CCS(=O)(=O)N1CC2(CCN(C(=O)Nc3ccccc3F)CC2)c2c([nH]c3cc(OC)ccc23)[C@@H]1CO [Compound 150, (R)-2′-(ethylsulfonyl)-N-(2-fluorophenyl)-1′-(hydroxymethyl)-7′-methoxy-1′,2′,3′,9′-tetrahydrospiro [piperidine-4,4′-pyrido[3,4-b]indole]-1-carboxamide] | 14 to 58
COc1ccc2c3c([nH]c2c1)C(C)(C)NCC31CCN(C(=O)OC(C)(C)C)CC1 [Compound 11] | 4430
COc1ccc2c3c(n(C)c2c1)[C@H](CO)N(CC1CCCCC1)CC31CCN(Cc2nccs2)CC1 [Compound 85, (R)-(2′-(cyclohexylmethyl)-7′-methoxy-9′-methyl-1-(thiazol-2-ylmethyl)-1′,2′,3′,9′-tetrahydrospiro [piperidine-4,4′-pyrido[3,4-b]indol]-1′-yl)methanol] | 1620
COc1ccc2c3c([nH]c2c1)[C@H](CO)N(C(C)=O)CC31CCN(C(=O)N(C)c2ccccc2F)CC1 [Compound 63, (R)-2′-acetyl-N-(2-fluorophenyl)-1′-(hydroxymethyl)-7′-methoxy-N-methyl-1′,2′,3′,9′-tetrahydrospiro[piperidine-4,4′-pyrido[3,4-b]indole]-1-carboxamide] | 1700 to 2920
COc1ccc2c3c(n(C)c2c1)[C@@H](CO)N(C(=O)C1CCC1)CC31CN(C(=O)Nc2cccc(F)c2)C1 [Compound 110, (S)-2′-(cyclobutanecarbonyl)-N-(3-fluorophenyl)-1′-(hydroxymethyl)-7′-methoxy-9′-methyl-1′,2′,3′,9′-tetrahydrospiro [azetidine-3,4′-pyrido[3,4-b]indole]-1-carboxamide] | 779
COc1ccc2c3c([nH]c2c1)[C@H](CO)N(C(C)=O)CC31CCN(C(=O)Nc2ccc(F)c(F)c2)CC1 [Compound 58, (R)-2′-acetyl-N-(3,4-difluorophenyl)-1′-(hydroxymethyl)-7′-methoxy-1′,2′,3′,9′-tetrahydrospiro[piperidine-4,4′-pyrido[3,4-b]indole]-1-carboxamide] | 1440 to 1600
CCCS(=O)(=O)N1CC2(CCN(C(=O)Nc3ccccc3F)CC2)c2c([nH]c3cc(OC)ccc23)[C@@H]1CO [Compound 149, (R)-N-(2-fluorophenyl)-1′-(hydroxymethyl)-7′-methoxy-2′-(propylsulfonyl)-1′,2′,3′,9′-tetrahydrospiro [piperidine-4,4′-pyrido[3,4-b]indole]-1-carboxamide] | 221
COc1ccc2c3c([nH]c2c1)[C@H](CO)N(C(C)=O)CC31CCNCC1 [Compound 4, (R)-1-(1′-(hydroxymethyl)-7′-methoxyspiro [piperidine-4,4′-pyrido[3,4-b]indol]-2′(1′H,3′H,9′H)-yl)ethanone] | 10700
COc1ccc2c3c([nH]c2c1)[C@@H](CO)N(Cc1cccc(F)c1)CC31CCN(Cc2ccccn2)CC1 [Compound 82, (S)-(2′-(3-fluorobenzyl)-7′-methoxy-1-(pyridin-2-ylmethyl)-1′,2′,3′,9′-tetrahydrospiro [piperidine-4,4′-pyrido[3,4-b]indol]-1′-yl)methanol] | 1520
COc1ccc2c3c([nH]c2c1)C(C)(C)N(C(C)=O)CC31CCN(C(=O)Nc2ccccc2F)CC1 [Compound 2, 2′-acetyl-N-(2-fluorophenyl)-7′ -methoxy-1′,1′-dimethyl-1′,2′,3′,9′-tetrahydrospiro [piperidine-4,4′-pyrido[3,4-b]indole]-1-carboxamide] | 120 to 303
CNC[C@H]1c2[nH]c3cc(OC)ccc3c2C2(CCN(C(=O)Nc3ccccc3F)CC2)CN1C(C)=O [Compound 6, (S)-2′-acetyl-N-(2-fluorophenyl)-7′-methoxy-1′-((methylamino)methyl)-1′,2′,3′,9′-tetrahydrospiro[piperidine-4,4′-pyrido[3,4-b]indole]-1-carboxamide] | 183 to 319
COc1ccc2c3c([nH]c2c1)[C@H](CO)N(C(C)=O)CC31CCN(S(=O)(=O)c2ccccc2F)CC1 [Compound 59, (R)-1-(1-((2-fluorophenyl)sulfonyl)-1′-(hydroxymethyl)-7′-methoxyspiro[piperidine-4,4′-pyrido[3,4-b]indol]-2′(1′H,3′H,9′H)-yl)ethanone] | 1460 to 2890
COc1ccc2c3c([nH]c2c1)[C@H](CO)N(C(=O)C1CCOCC1)CC31CCN(Cc2nccs2)CC1 [Compound 104, (R)-(1′-(hydroxymethyl)-7′-methoxy-1-(thiazol-2-ylmethyl)spiro[piperidine-4,4′-pyrido[3,4-b]indol]-2′(1′H,3′H,9′H)-yl)(tetrahydro-2H-pyran-4-yl)methanone] | 467
COc1ccc2c3c([nH]c2c1)C(C)(C)N(C(C)=O)CC31CCN(C(=O)OC(C)(C)C)CC1 [Compound 14, tert-butyl 2′-acetyl-7′-methoxy-1′,1′-dimethyl-1′,2′,3′,9′-tetrahydrospiro [piperidine-4,4′-pyrido[3,4-b]indole]-1-carboxylate] | 415
COc1ccc2c3c([nH]c2c1)[C@H](CO)N(S(C)(=O)=O)CC31CCN(C(=O)Nc2ccccc2F)CC1 [Compound 53, (R)-N-(2-fluorophenyl)-1′-(hydroxymethyl)-7′-methoxy-2′-(methylsulfonyl)-1′,2′,3′,9′-tetrahydrospiro[piperidine-4,4′-pyrido[3,4-b]indole]-1-carboxamide] | 37 to 118
COc1ccc2c3c([nH]c2c1)[C@H](CN1CCOCC1)N(C(C)=O)CC31CCN(C(=O)Nc2ccccc2F)CC1 [Compound 65, (S)-2′-acetyl-N-(2-fluorophenyl)-7′-methoxy-1′-(morpholinomethyl)-1′,2′,3′,9′-tetrahydrospiro[piperidine-4,4′-pyrido[3,4-b]indole]-1-carboxamide] | 882
COc1ccc2c3c(n(C)c2c1)[C@@H](CO)N(C(=O)c1ccc(F)cc1)CC31CCN(C(=O)Nc2ccc(F)cc2)CC1 [Compound 129] | 794
COc1ccc2c3c([nH]c2c1)[C@H](CO)N(C(C)=O)CC31CCN(C(=O)Nc2cccc(F)c2F)CC1 [Compound 45, (R)-2′-acetyl-N-(2,3-difluorophenyl)-1′-(hydroxymethyl)-7′-methoxy-1′,2′,3′,9′-tetrahydrospiro[piperidine-4,4′-pyrido[3,4-b]indole]-1-carboxamide] | 44 to 131
COc1ccc2c3c(n(C)c2c1)[C@H](CO)N(C(=O)Nc1ccc(F)cc1)CC31CCN(C(=O)c2ccc3c(c2)OCO3)CC1 [Compound 131, (R)-1-(benzo[d] [1,3]dioxole-5-carbonyl)-N-(4-fluorophenyl)-1′-(hydroxymethyl)-7′-methoxy-9′-methyl-3′,9′-dihydrospiro [piperidine-4,4′-pyrido[3,4-b]indole]-2′(1′H)-carboxamide] | 892
COc1ccc2c3c(n(C)c2c1)[C@@H](CO)N(Cc1ccc(Cl)cc1)CC31CCN(CC2CC2)CC1 [Compound 132, (S)-(2′-(4-chlorobenzyl)-1-(cyclopropylmethyl)-7′-methoxy-9′-methyl-1′,2′,3′,9′-tetrahydrospiro [piperidine-4,4′-pyrido[3,4-b]indol]-1′-yl) methanol] | 1670
COc1ccc2c3c([nH]c2c1)[C@H]1COCC(=O)N1CC31CCN(C(=O)Nc2ccccc2F)CC1 [Compound 140, (S)-N-(2-fluorophenyl)-10-methoxy-4-oxo-1,3,4,6,12,12b-hexahydrospiro [[1,4]oxazino[4′,3′:1 ,2]pyrido[3,4-b]indole-7,4′-piperidine]-1′-carboxamide] | 2470

same assay, conditions: read-out: EC^50 Dd2

Molecule | EC50 [nM]
Mixture of (1R,3′R) and (1R,3′S)-2-acetyl-1- (((tert-butyldimethylsilyl) oxy)methyl)-N- (2-fluorophenyl)-7-methoxy- 1,2,3,9-tetrahydrospiro [pyrido[3,4-b]indole- 4,3′-pyrrolidine]-1′- carboxamide compound with (1R,3′S)- 2-acetyl-1- (((tert-butyldimethylsilyl) oxy)methyl)-N-(2- fluorophenyl)-7-methoxy- 1,2,3,9- tetrahydrospiro[pyrido [3,4-b]indole-4-3′- pyrrolidine]-1′- carboxamide (1:1) [Compound 75] | 3210
